Measurements reported in ChEMBL document CHEMBL3232856, “Endomorphin analogues with mixed μ-opioid (MOP) receptor agonism/δ-opioid (DOP) receptor antagonism and lacking β-arrestin2 recruitment activity” (Bioorg Med Chem, 2014).
Calls of active or inactive are those of the source. No cut-off for these calls is given here. Residues, ends and D or L forms follow the SMILES beside them.

Tests used:
[1] = target: T1, Delta-type opioid receptor (Homo sapiens, UniProt P41143); assay: Agonist activity at GFP-fused delta opioid receptor (unknown origin) expressed in HEK293 cells assessed as recruitment of beta-arrestin-2 after 10 mins by BRET assay; assay type: functional, cell-based
[2] = target: Delta-type opioid receptor (Mus musculus, UniProt P32300); assay: Agonist activity at delta opioid receptor in mouse vas deferens assessed as inhibition of electrically-stimulated muscle contraction; assay type: tissue-based
[3] = target: T2, Kappa-type opioid receptor (Homo sapiens, UniProt P41145); assay: Agonist activity at GFP-fused kappa opioid receptor (unknown origin) expressed in HEK293 cells assessed as recruitment of beta-arrestin-2 after 10 mins by BRET assay; assay type: cell-based
[4] = target: Delta-type opioid receptor (Rattus norvegicus, UniProt P33533); assay: Displacement of [3H]deltorphin-2 from delta opioid receptor in Sprague-Dawley rat brain P2 synaptosomal membranes
[5] = target: Mu-type opioid receptor (Cavia porcellus, UniProt P97266); assay: Agonist activity at mu opioid receptor in guinea pig ileum assessed as inhibition of electrically-stimulated muscle contraction; assay type: tissue-based
[6] = target: T3, Mu-type opioid receptor (Homo sapiens, UniProt P35372); assay: Agonist activity at GFP-fused mu opioid receptor (unknown origin) expressed in HEK293 cells assessed as recruitment of beta-arrestin-2 after 10 mins by BRET assay; assay type: cell-based
[7] = target: Mu-type opioid receptor (Rattus norvegicus, UniProt P33535); assay: Displacement of [3H]DAMGO from mu opioid receptor in Sprague-Dawley rat brain P2 synaptosomal membranes
[8] = target: T1, Delta-type opioid receptor; details: HEK293, at 0.1 to 10 µM
[9] = target: T2, Kappa-type opioid receptor; details: HEK293, at 0.1 to 10 µM
[10] = target: T1, Delta-type opioid receptor; details: HEK293, at 100 µM
[11] = target: T3, Mu-type opioid receptor; details: HEK293, at 1 µM
[12] = target: T1, Delta-type opioid receptor; details: HEK293, at 100 µM; remark: listed apart in the source
[13] = target: T3, Mu-type opioid receptor; details: HEK293, at 100 µM
[14] = target: T3, Mu-type opioid receptor; assay: Displacement of [3H]DAMGO from mu opioid receptor (unknown origin)
[15] = target: T1, Delta-type opioid receptor; assay: Displacement of [3H]DPDPE from delta opioid receptor (unknown origin)
[16] = Displacement of [3H]DPDPE from delta opioid receptor in guinea pig brain membranes after 1 hr; assay type: cell membranes, Cavia porcellus, Membrane
[17] = target: T3, Mu-type opioid receptor; assay: Potency index, ratio of DAMGO EC50 to compound EC50 for mu opioid receptor (unknown origin) by beta-arrestin-2 recruitment assay
[18] = target: T1, Delta-type opioid receptor; assay: Agonist activity at delta opioid receptor (unknown origin) expressed in HEK293 cells assessed as inhibition of forskolin-induced cAMP accumulation after 30 mins; assay type: functional, cell-based
[19] = target: T3, Mu-type opioid receptor; assay: Intrinsic efficacy at GFP-fused mu opioid receptor (unknown origin) expressed in HEK293 cells assessed as recruitment of beta-arrestin-2 after 10 mins by BRET assay relative to untreated control; assay type: cell-based; details: hek293, 10 min

T3 sequence (P35372 whole entry, the tested form may be a part): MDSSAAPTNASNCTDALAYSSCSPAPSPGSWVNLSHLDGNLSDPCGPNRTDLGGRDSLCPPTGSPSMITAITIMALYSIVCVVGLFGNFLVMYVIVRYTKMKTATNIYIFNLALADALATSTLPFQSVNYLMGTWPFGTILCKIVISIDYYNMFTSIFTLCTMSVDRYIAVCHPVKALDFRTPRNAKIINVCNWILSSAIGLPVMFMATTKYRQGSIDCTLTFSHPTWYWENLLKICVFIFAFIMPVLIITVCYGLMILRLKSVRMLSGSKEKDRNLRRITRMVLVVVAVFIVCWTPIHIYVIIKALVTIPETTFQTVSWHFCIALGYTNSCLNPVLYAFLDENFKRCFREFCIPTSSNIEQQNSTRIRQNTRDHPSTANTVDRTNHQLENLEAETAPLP
T2 sequence (P41145 whole entry, the tested form may be a part): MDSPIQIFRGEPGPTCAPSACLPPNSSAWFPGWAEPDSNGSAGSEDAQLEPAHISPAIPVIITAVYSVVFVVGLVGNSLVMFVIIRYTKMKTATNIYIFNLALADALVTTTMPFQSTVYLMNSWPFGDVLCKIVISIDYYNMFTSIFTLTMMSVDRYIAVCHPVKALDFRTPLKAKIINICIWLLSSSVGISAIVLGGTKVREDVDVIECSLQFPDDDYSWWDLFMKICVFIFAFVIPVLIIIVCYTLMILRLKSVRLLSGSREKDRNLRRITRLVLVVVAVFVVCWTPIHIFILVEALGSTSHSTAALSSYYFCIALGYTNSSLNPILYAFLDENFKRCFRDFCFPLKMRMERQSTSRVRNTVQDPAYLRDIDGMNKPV
T1 sequence (P41143 whole entry, the tested form may be a part): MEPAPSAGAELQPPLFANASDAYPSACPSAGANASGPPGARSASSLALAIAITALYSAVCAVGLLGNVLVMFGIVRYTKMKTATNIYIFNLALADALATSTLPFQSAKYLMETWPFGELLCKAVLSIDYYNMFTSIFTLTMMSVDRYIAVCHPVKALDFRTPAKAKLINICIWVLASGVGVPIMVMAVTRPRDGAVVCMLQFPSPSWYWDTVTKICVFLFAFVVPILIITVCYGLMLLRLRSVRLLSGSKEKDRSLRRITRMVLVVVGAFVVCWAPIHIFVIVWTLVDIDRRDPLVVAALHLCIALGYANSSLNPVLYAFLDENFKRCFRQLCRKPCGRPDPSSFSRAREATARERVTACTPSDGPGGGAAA
Chain of Delta-type opioid receptor (Rattus norvegicus, UniProt P33533) (P33533 whole entry): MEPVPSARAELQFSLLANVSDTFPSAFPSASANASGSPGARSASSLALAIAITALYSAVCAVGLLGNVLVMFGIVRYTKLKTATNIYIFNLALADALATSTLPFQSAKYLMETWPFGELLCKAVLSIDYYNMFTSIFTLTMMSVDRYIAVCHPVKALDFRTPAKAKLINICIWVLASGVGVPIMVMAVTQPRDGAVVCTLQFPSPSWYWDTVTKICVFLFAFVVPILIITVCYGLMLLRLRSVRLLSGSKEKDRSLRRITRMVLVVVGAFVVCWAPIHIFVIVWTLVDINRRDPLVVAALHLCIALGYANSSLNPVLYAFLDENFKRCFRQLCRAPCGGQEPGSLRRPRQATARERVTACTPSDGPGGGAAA
Chain of Mu-type opioid receptor (Rattus norvegicus, UniProt P33535) (P33535 whole entry): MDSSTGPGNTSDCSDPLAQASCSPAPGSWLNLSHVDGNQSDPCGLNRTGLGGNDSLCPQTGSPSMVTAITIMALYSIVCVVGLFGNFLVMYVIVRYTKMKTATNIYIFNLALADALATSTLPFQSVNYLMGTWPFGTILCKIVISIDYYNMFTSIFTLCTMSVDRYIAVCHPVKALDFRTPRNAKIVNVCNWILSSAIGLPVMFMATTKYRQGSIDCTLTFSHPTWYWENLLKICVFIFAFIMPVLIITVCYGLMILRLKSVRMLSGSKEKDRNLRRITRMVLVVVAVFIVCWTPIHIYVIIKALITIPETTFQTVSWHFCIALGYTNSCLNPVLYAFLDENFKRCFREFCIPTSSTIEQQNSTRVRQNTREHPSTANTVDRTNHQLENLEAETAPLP
Chain of Mu-type opioid receptor (Cavia porcellus, UniProt P97266) (P97266 whole entry, the tested form may be a part): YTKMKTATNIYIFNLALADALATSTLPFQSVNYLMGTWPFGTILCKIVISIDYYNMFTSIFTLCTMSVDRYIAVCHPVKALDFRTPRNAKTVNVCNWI
Chain of Delta-type opioid receptor (Mus musculus, UniProt P32300) (P32300 whole entry, the tested form may be a part): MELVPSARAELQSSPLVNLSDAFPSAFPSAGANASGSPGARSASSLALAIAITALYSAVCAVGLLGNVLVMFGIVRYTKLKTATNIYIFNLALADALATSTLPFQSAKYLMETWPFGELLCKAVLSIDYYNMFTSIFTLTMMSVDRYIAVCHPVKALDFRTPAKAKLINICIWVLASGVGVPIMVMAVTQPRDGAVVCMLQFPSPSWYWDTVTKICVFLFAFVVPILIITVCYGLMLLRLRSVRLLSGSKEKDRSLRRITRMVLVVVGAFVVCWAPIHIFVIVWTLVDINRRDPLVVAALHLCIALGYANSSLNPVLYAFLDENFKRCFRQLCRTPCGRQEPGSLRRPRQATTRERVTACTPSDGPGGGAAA

Cc1cc(O)cc(C)c1C[C@H](N)C(=O)N1CCC[C@H]1C(=O)N[C@@H](Cc1cccc2ccccc12)C(N)=O (HELM PEPTIDE1{[Cc1cc(O)cc(C)c1C[C@H](N)C(=O)[*:2]].P.[O=C([C@H](Cc1cccc2ccccc12)N[*:1])[*:2]].[am]}$$$$V2.0)
EC50 [1]: Not Active | IC50 [2]: 10000 nM | EC50 [3]: Not Active | Ki [4]: 121 nM | IC50 [5]: 4.63 nM | EC50 ([6]; hek293): Not Active | Ki [7]: 0.7 nM

Cc1cccc(C)c1C[C@H](NC(=O)[C@H](Cc1ccccc1)NC(=O)[C@@H]1CCCN1C(=O)[C@@H](N)Cc1c(C)cc(O)cc1C)C(N)=O
EC50 [1]: Not Active | IC50 [2]: > 10000 nM | EC50 [3]: Not Active | inhibition [8]: inactive | inhibition [9]: inactive | inhibition [10]: inactive | Ki [4]: 40 nM | IC50 [5]: 249 nM | inhibition [11]: Active | inhibition [12]: inactive | inhibition [13]: inactive | EC50 ([6]; hek293): Not Active | Ki [7]: 0.31 nM

Cc1cc(O)cc(C)c1C[C@H](N)C(=O)N1CCC[C@H]1C(=O)N[C@@H](Cc1ccccc1)C(N)=O (HELM PEPTIDE1{[Cc1cc(O)cc(C)c1C[C@H](N)C(=O)[*:2]].P.F.[am]}$$$$V2.0)
IC50 [2]: 113 nM | IC50 [5]: 2.33 nM | Ki [14]: 0.12 nM | Ki [15]: 53.2 nM

Cc1cc(O)cc(C)c1C[C@H](NC(=O)[C@H](Cc1ccccc1)NC(=O)[C@@H]1CCCN1C(=O)[C@@H](N)Cc1c(C)cc(O)cc1C)C(N)=O (HELM PEPTIDE1{[Cc1cc(O)cc(C)c1C[C@H](N)C(=O)[*:2]].P.F.[Cc1cc(O)cc(C)c1C[C@H](N[*:1])C(=O)[*:2]].[am]}$$$$V2.0)
EC50 [1]: Not Active | IC50 [2]: > 10000 nM | EC50 [3]: Not Active | inhibition [8]: inactive | inhibition [9]: inactive | inhibition [10]: inactive | Ki [4]: 87.2 nM | IC50 [5]: 44.6 nM | inhibition [11]: Active | inhibition [12]: inactive | inhibition [13]: inactive | EC50 ([6]; hek293): Not Active | Ki [7]: 0.28 nM

Cc1cc(C)c(C[C@H](NC(=O)[C@H](Cc2ccccc2)NC(=O)[C@@H]2CCCN2C(=O)[C@@H](N)Cc2c(C)cc(O)cc2C)C(N)=O)c(C)c1
EC50 [1]: Not Active | IC50 [2]: > 10000 nM | EC50 [3]: Not Active | inhibition [8]: inactive | inhibition [9]: inactive | inhibition [10]: inactive | Ki [4]: 24.5 nM | IC50 [5]: 66.7 nM | inhibition [11]: Active | inhibition [12]: inactive | inhibition [13]: inactive | EC50 ([6]; hek293): Not Active | Ki [7]: 0.37 nM

CC(C)C[C@@H](NC(=O)[C@H](Cc1ccccc1)NC(=O)CNC(=O)[C@@H](C)NC(=O)[C@@H](N)Cc1ccc(O)cc1)C(=O)O [DADLE]
IC50 [5]: 13.4 nM | Ki [16]: 0.3 nM

Cc1cc(O)cc(C)c1C[C@H](N)C(=O)N1CCC[C@H]1C(=O)N[C@@H](Cc1c[nH]c2ccccc12)C(N)=O (HELM PEPTIDE1{[Cc1cc(O)cc(C)c1C[C@H](N)C(=O)[*:2]].P.W.[am]}$$$$V2.0)
EC50 [1]: Not Active | IC50 [2]: > 10000 nM | EC50 [3]: Not Active | inhibition [8]: Active | inhibition [9]: Active | inhibition [10]: inactive | Ki [4]: 66.4 nM | Ratio EC50 [17]: 60 | IC50 [18]: < 100 nM | IC50 [5]: 10.4 nM | inhibition [11]: Active | inhibition [12]: inactive | inhibition [13]: Active | Ratio [19]: 0.6 | EC50 ([6]; read-out: EC50): 6.3 nM | Ki [7]: 0.21 nM

C[C@@H](NC(=O)[C@@H](N)Cc1ccc(O)cc1)C(=O)NCC(=O)N(C)[C@@H](Cc1ccccc1)C(=O)NCCO
inhibition [11]: Active

Cc1cc(O)cc(C)c1C[C@H](N)C(=O)N1CCC[C@H]1C(=O)N[C@@H](Cc1ccccc1)C(=O)N[C@@H](Cc1ccc2ccccc2c1)C(N)=O (HELM PEPTIDE1{[Cc1cc(O)cc(C)c1C[C@H](N)C(=O)[*:2]].P.F.[O=C([C@H](Cc1ccc2ccccc2c1)N[*:1])[*:2]].[am]}$$$$V2.0)
EC50 [1]: Not Active | IC50 [2]: > 10000 nM | EC50 [3]: Not Active | inhibition [8]: inactive | inhibition [9]: inactive | inhibition [10]: inactive | Ki [4]: 23.2 nM | IC50 [5]: 40.2 nM | inhibition [11]: Active | inhibition [12]: inactive | inhibition [13]: Active | EC50 ([6]; hek293): Not Active | Ki [7]: 0.81 nM

Cc1cc(C)c(C[C@H](NC(=O)[C@@H]2CCCN2C(=O)[C@@H](N)Cc2c(C)cc(O)cc2C)C(N)=O)c(C)c1
EC50 [1]: Not Active | IC50 [2]: > 10000 nM | EC50 [3]: Not Active | inhibition [8]: inactive | inhibition [9]: inactive | inhibition [10]: inactive | Ki [4]: 13.1 nM | Ratio EC50 [17]: 20 | IC50 [5]: 2.68 nM | inhibition [11]: Active | inhibition [12]: inactive | Ratio [19]: 0.4 | EC50 ([6]; read-out: EC50): 18.6 nM | Ki [7]: 0.13 nM

Cc1cc(O)cc(C)c1C[C@H](N)C(=O)N1CCC[C@H]1C(=O)N[C@@H](Cc1ccc2ccccc2c1)C(N)=O (HELM PEPTIDE1{[Cc1cc(O)cc(C)c1C[C@H](N)C(=O)[*:2]].P.[O=C([C@H](Cc1ccc2ccccc2c1)N[*:1])[*:2]].[am]}$$$$V2.0)
EC50 [1]: Not Active | IC50 [2]: > 10000 nM | EC50 [3]: Not Active | inhibition [8]: inactive | inhibition [9]: inactive | inhibition [10]: inactive | Ki [4]: 68.3 nM | IC50 [5]: > 10000 nM | inhibition [11]: Active | inhibition [12]: inactive | EC50 ([6]; hek293): Not Active | Ki [7]: 16.9 nM

Cc1cc(C)c(C[C@H](NC(=O)[C@H](Cc2c(C)cc(C)cc2C)NC(=O)[C@@H]2CCCN2C(=O)[C@@H](N)Cc2c(C)cc(O)cc2C)C(N)=O)c(C)c1
EC50 [1]: Not Active | IC50 [2]: > 10000 nM | EC50 [3]: Not Active | inhibition [8]: inactive | inhibition [9]: inactive | inhibition [10]: Active | Ki [4]: 1.63 nM | IC50 [5]: 9.28 nM | inhibition [11]: Active | inhibition [12]: Active | EC50 ([6]; hek293): Not Active | Ki [7]: 0.47 nM

Oc1ccc2c3c1O[C@H]1c4oc5ccccc5c4C[C@@]4(O)[C@@H](C2)N(CC2CC2)CC[C@]314
inhibition [12]: 50%

Cc1cc(O)cc(C)c1C[C@H](N)C(=O)N1CCC[C@H]1C(=O)N[C@@H](Cc1ccccc1)C(=O)N[C@@H](Cc1c[nH]c2ccccc12)C(N)=O (HELM PEPTIDE1{[Cc1cc(O)cc(C)c1C[C@H](N)C(=O)[*:2]].P.F.W.[am]}$$$$V2.0)
EC50 [1]: Not Active | IC50 [2]: > 10000 nM | EC50 [3]: Not Active | inhibition [8]: inactive | inhibition [9]: inactive | inhibition [10]: inactive | Ki [4]: 25.4 nM | IC50 [5]: 207 nM | inhibition [11]: Active | inhibition [12]: inactive | inhibition [13]: inactive | EC50 ([6]; hek293): Not Active | Ki [7]: 0.34 nM

Cc1cc(O)cc(C)c1C[C@H](N)C(=O)N1CCC[C@H]1C(=O)N[C@@H](Cc1ccccc1)C(=O)N[C@@H](Cc1cccc2ccccc12)C(N)=O (HELM PEPTIDE1{[Cc1cc(O)cc(C)c1C[C@H](N)C(=O)[*:2]].P.F.[O=C([C@H](Cc1cccc2ccccc12)N[*:1])[*:2]].[am]}$$$$V2.0)
EC50 [1]: Not Active | IC50 [2]: > 10000 nM | EC50 [3]: Not Active | inhibition [8]: inactive | inhibition [9]: inactive | inhibition [10]: inactive | Ki [4]: 51.7 nM | IC50 [5]: 14.3 nM | inhibition [11]: Active | inhibition [12]: inactive | EC50 ([6]; hek293): Not Active | Ki [7]: 0.28 nM

Cc1cccc(C)c1C[C@H](NC(=O)[C@@H]1CCCN1C(=O)[C@@H](N)Cc1c(C)cc(O)cc1C)C(N)=O (HELM PEPTIDE1{[Cc1cc(O)cc(C)c1C[C@H](N)C(=O)[*:2]].P.[Cc1cccc(C)c1C[C@H](N[*:1])C(=O)[*:2]].[am]}$$$$V2.0)
EC50 [1]: Not Active | IC50 [2]: 745 nM | EC50 [3]: Not Active | Ki [4]: 33 nM | IC50 [5]: 0.274 nM | EC50 ([6]; hek293): Not Active | Ki [7]: 0.15 nM
